Assay results reported in US12545639B2, “3-substituted phenylamidine compounds, preparation and use thereof” (PI INDUSTRIES LTD., priority 2019, dated 2026).

Key:
Phakopsora pachyrhizi = Phakopsora pachyrhizi test in soybean, preventive, in vivo on plants; conditions: in Glycine max, read-out: Efficacy (% control), disease severity compared to the untreated check
Colletotrichum capsici = Colletotrichum capsici (anthracnose) in vitro test, radial growth on potato dextrose agar; format: cell-based; conditions: Colletotrichum truncatum, 168 h; 300 ppm in potato dextrose agar; 25° C., 60% relative humidity, seven days; read-out: control compared to the untreated check (radial growth)
[1] = tested on: Septoria lycopersici/Corynespora cassicola (CORYCA); assay: Septoria lycopersici/Corynespora cassicola (CORYCA) (leaf spot of tomato) in vitro test, radial growth on potato dextrose agar; format: cell-based; conditions: 168 h, 300 ppm in potato dextrose agar, 25° C., 70% relative humidity, seven days, read-out: control compared to the untreated check (radial growth)
Pyricularia oryzae = assay: microbe, parasite or virus in culture; format: cell-based; conditions: 168 h, read-out: control compared to the untreated check (radial growth)
Alternaria solani = Alternaria solani (early blight of tomato/potato) in vitro test, radial growth on potato dextrose agar; format: cell-based; conditions: 168 h, 300 ppm in potato dextrose agar, 25° C., 60% relative humidity, seven days, read-out: control compared to the untreated check (radial growth)
Rhizoctonia solani = Rhizoctonia solani (rice sheath blight/potato black scurf) in vitro test, radial growth on potato dextrose agar; format: cell-based; conditions: 168 h, 300 ppm in potato dextrose agar, 25° C., 60% relative humidity, seven days, read-out: control compared to the untreated check (radial growth)
Botrytis cinerea = Botrytis cinerea (gray mold) in vitro test, radial growth on potato dextrose agar; format: cell-based; conditions: 168 h, 300 ppm in potato dextrose agar, 22° C., 90% relative humidity, seven days, read-out: control compared to the untreated check (radial growth)

CCN(C)C=Nc1cc(C)cc(Nc2cc(C)ccc2Cl)c1Cl [Compound 115, N′-(2-chloro-3-((2-chloro-5-methylphenyl)amino)-5-methylphenyl)-N-ethyl-N-methylformimidamide]
≥ 70%: pest or weed control at 500 ppm (Phakopsora pachyrhizi) | inhibition of growth at 300 ppm (Colletotrichum capsici) | inhibition of growth at 300 ppm [1] | inhibition of growth at 300 ppm (Pyricularia oryzae) | inhibition of growth at 300 ppm (Alternaria solani)

CCN(C)C=Nc1cc(C)cc(Nc2cccc(C)c2)c1Cl [Compound 36, N′-(2-chloro-5-methyl-3-(m-tolylamino)phenyl)-N-ethyl-N-methylformimidamide]
≥ 70%: pest or weed control at 500 ppm (Phakopsora pachyrhizi) | inhibition of growth at 300 ppm (Colletotrichum capsici) | inhibition of growth at 300 ppm [1] | inhibition of growth at 300 ppm (Pyricularia oryzae) | inhibition of growth at 300 ppm (Alternaria solani)

CCN(C)C=Nc1cc(C)cc(Cc2ccccc2F)c1C [Compound 219, N-ethyl-N′-(3-(2-fluorobenzyl)-2,5-dimethylphenyl)-N-methylformimidamide]
≥ 70%: pest or weed control at 500 ppm (Phakopsora pachyrhizi) | inhibition of growth at 300 ppm (Colletotrichum capsici) | inhibition of growth at 300 ppm [1] | inhibition of growth at 300 ppm (Rhizoctonia solani) | inhibition of growth at 300 ppm (Pyricularia oryzae) | inhibition of growth at 300 ppm (Alternaria solani)

CCN(C)C=Nc1cc(F)cc(Nc2cccc(Cl)c2)c1C [Compound 37, N′-(3-((3-chlorophenyl)amino)-5-fluoro-2-methylphenyl)-N-ethyl-N-methylformimidamide]
≥ 70%: inhibition of growth at 300 ppm (Colletotrichum capsici) | inhibition of growth at 300 ppm [1] | inhibition of growth at 300 ppm (Rhizoctonia solani) | inhibition of growth at 300 ppm (Pyricularia oryzae) | inhibition of growth at 300 ppm (Botrytis cinerea) | inhibition of growth at 300 ppm (Alternaria solani)

CCN(C)C=Nc1cc(C)cc(N(C)c2ncc(Cl)cc2C)c1Cl [Compound 118, N′-(2-chloro-3-((5-chloro-3-methylpyridin-2-yl)(methyl)amino)-5-methylphenyl)-N-ethyl-N-methylformimidamide]
≥ 70%: inhibition of growth at 300 ppm (Colletotrichum capsici) | inhibition of growth at 300 ppm [1] | inhibition of growth at 300 ppm (Pyricularia oryzae) | inhibition of growth at 300 ppm (Botrytis cinerea) | inhibition of growth at 300 ppm (Alternaria solani)

CCN(C)C=Nc1cc(F)cc(Nc2ccccc2F)c1C [Compound 19, N-ethyl-N′-(5-fluoro-3-((2-fluorophenyl)amino)-2-methylphenyl)-N-methylformimidamide]
≥ 70%: inhibition of growth at 300 ppm (Colletotrichum capsici) | inhibition of growth at 300 ppm [1] | inhibition of growth at 300 ppm (Rhizoctonia solani) | inhibition of growth at 300 ppm (Pyricularia oryzae) | inhibition of growth at 300 ppm (Botrytis cinerea) | inhibition of growth at 300 ppm (Alternaria solani)

CCN(C)C=Nc1cc(Cl)cc(Cc2cccc(Cl)c2)c1C [Compound 101, N′-(5-chloro-3-(3-chlorobenzyl)-2-methylphenyl)-N-ethyl-N-methylformimidamide]
≥ 70%: pest or weed control at 500 ppm (Phakopsora pachyrhizi) | inhibition of growth at 300 ppm (Colletotrichum capsici) | inhibition of growth at 300 ppm [1] | inhibition of growth at 300 ppm (Pyricularia oryzae) | inhibition of growth at 300 ppm (Alternaria solani)

CCN(C)C=Nc1cc(Cl)cc(N(C)c2cnccn2)c1C [Compound 213, N′-(5-chloro-2-methyl-3-(methyl(pyrazin-2-yl)amino)phenyl)-N-ethyl-N-methylformimidamide]
≥ 70%: inhibition of growth at 300 ppm (Colletotrichum capsici) | inhibition of growth at 300 ppm [1] | inhibition of growth at 300 ppm (Rhizoctonia solani) | inhibition of growth at 300 ppm (Pyricularia oryzae) | inhibition of growth at 300 ppm (Botrytis cinerea) | inhibition of growth at 300 ppm (Alternaria solani)

CCN(C)C=Nc1cc(F)cc(Nc2cc(C)cc(F)c2)c1C [Compound 114, N-ethyl-N′-(5-fluoro-3-((3-fluoro-5-methylphenyl)amino)-2-methylphenyl)-N-methylformimidamide]
≥ 70%: pest or weed control at 500 ppm (Phakopsora pachyrhizi) | inhibition of growth at 300 ppm (Colletotrichum capsici) | inhibition of growth at 300 ppm [1] | inhibition of growth at 300 ppm (Pyricularia oryzae) | inhibition of growth at 300 ppm (Alternaria solani)

CCN(C)C=Nc1cc(F)cc(N(C)c2ccccc2)c1C [Compound 11, N-ethyl-N′-(5-fluoro-2-methyl-3-(methyl(phenyl)amino)phenyl)-N-methylformimidamide]
≥ 70%: inhibition of growth at 300 ppm (Colletotrichum capsici) | inhibition of growth at 300 ppm [1] | inhibition of growth at 300 ppm (Rhizoctonia solani) | inhibition of growth at 300 ppm (Botrytis cinerea) | inhibition of growth at 300 ppm (Alternaria solani)

CCN(C)C=Nc1cc(F)cc(Nc2cc(C)ccc2Cl)c1C [Compound 113, N′-(3-((2-chloro-5-methylphenyl)amino)-5-fluoro-2-methylphenyl)-N-ethyl-N-methylformimidamide]
≥ 70%: pest or weed control at 500 ppm (Phakopsora pachyrhizi) | inhibition of growth at 300 ppm (Colletotrichum capsici) | inhibition of growth at 300 ppm [1] | inhibition of growth at 300 ppm (Rhizoctonia solani) | inhibition of growth at 300 ppm (Pyricularia oryzae) | inhibition of growth at 300 ppm (Alternaria solani)

CCN(C)C=Nc1cc(C)cc(Cc2cccc(F)c2)c1Br [Compound 189, N′-(2-bromo-3-(3-fluorobenzyl)-5-methylphenyl)-N-ethyl-N-methylformimidamide]
≥ 70%: pest or weed control at 500 ppm (Phakopsora pachyrhizi) | inhibition of growth at 300 ppm (Colletotrichum capsici) | inhibition of growth at 300 ppm [1] | inhibition of growth at 300 ppm (Rhizoctonia solani) | inhibition of growth at 300 ppm (Pyricularia oryzae) | inhibition of growth at 300 ppm (Alternaria solani)

CCN(C)C=Nc1cc(C)cc(Nc2ccccc2C)c1Cl [Compound 24, N′-(2-chloro-5-methyl-3-(o-tolylamino)phenyl)-N-ethyl-N-methylformimidamide]
≥ 70%: inhibition of growth at 300 ppm (Colletotrichum capsici) | inhibition of growth at 300 ppm [1] | inhibition of growth at 300 ppm (Rhizoctonia solani) | inhibition of growth at 300 ppm (Pyricularia oryzae) | inhibition of growth at 300 ppm (Botrytis cinerea) | inhibition of growth at 300 ppm (Alternaria solani)

CCN(C)C=Nc1cc(C)cc(Nc2ccccc2)c1Cl [Compound 9, N′-(2-chloro-5-methyl-3-(phenylamino)phenyl)-N-ethyl-N-methylformimidamide]
≥ 70%: inhibition of growth at 300 ppm (Colletotrichum capsici) | inhibition of growth at 300 ppm [1] | inhibition of growth at 300 ppm (Rhizoctonia solani) | inhibition of growth at 300 ppm (Pyricularia oryzae) | inhibition of growth at 300 ppm (Botrytis cinerea) | inhibition of growth at 300 ppm (Alternaria solani)

CCN(C)C=Nc1cc(Cl)cc(Cc2ccc(Cl)c(F)c2)c1C [Compound 131, N′-(5-chloro-3-(4-chloro-3-fluorobenzyl)-2-methylphenyl)-N-ethyl-N-methylformimidamide]
≥ 70%: pest or weed control at 500 ppm (Phakopsora pachyrhizi) | inhibition of growth at 300 ppm (Colletotrichum capsici) | inhibition of growth at 300 ppm [1] | inhibition of growth at 300 ppm (Rhizoctonia solani) | inhibition of growth at 300 ppm (Pyricularia oryzae) | inhibition of growth at 300 ppm (Alternaria solani)

CCN(C)C=Nc1cc(C)cc(Cc2ccccc2C)c1Br [Compound 209, N′-(2-bromo-5-methyl-3-(2-methylbenzyl)phenyl)-N-ethyl-N-methylformimidamide]
≥ 70%: pest or weed control at 500 ppm (Phakopsora pachyrhizi) | inhibition of growth at 300 ppm (Colletotrichum capsici) | inhibition of growth at 300 ppm [1] | inhibition of growth at 300 ppm (Rhizoctonia solani) | inhibition of growth at 300 ppm (Alternaria solani)

CCN(C)C=Nc1cc(F)cc(Nc2ccccc2C)c1C [Compound 15, N-ethyl-N′-(5-fluoro-2-methyl-3-(o-tolylamino)phenyl)-N-methylformimidamide]
≥ 70%: inhibition of growth at 300 ppm (Colletotrichum capsici) | inhibition of growth at 300 ppm [1] | inhibition of growth at 300 ppm (Rhizoctonia solani) | inhibition of growth at 300 ppm (Pyricularia oryzae) | inhibition of growth at 300 ppm (Botrytis cinerea) | inhibition of growth at 300 ppm (Alternaria solani)

CCN(C)C=Nc1cc(F)cc(Nc2cc(F)cc(Cl)c2)c1C [Compound 96, N′-(3-((3-chloro-5-fluorophenyl)amino)-5-fluoro-2-methylphenyl)-N-ethyl-N-methylformimidamide]
≥ 70%: inhibition of growth at 300 ppm (Colletotrichum capsici) | inhibition of growth at 300 ppm [1] | inhibition of growth at 300 ppm (Rhizoctonia solani) | inhibition of growth at 300 ppm (Pyricularia oryzae) | inhibition of growth at 300 ppm (Botrytis cinerea) | inhibition of growth at 300 ppm (Alternaria solani)

CCN(C)C=Nc1cc(C)cc(Nc2ccccc2F)c1Cl [Compound 23, N′-(2-chloro-3-((2-fluorophenyl)amino)-5-methylphenyl)-N-ethyl-N-methylformimidamide]
≥ 70%: pest or weed control at 500 ppm (Phakopsora pachyrhizi) | inhibition of growth at 300 ppm (Colletotrichum capsici) | inhibition of growth at 300 ppm [1] | inhibition of growth at 300 ppm (Rhizoctonia solani) | inhibition of growth at 300 ppm (Pyricularia oryzae) | inhibition of growth at 300 ppm (Alternaria solani)
